Data reported in patent publication US20250353841A1 (BIOGEN MA INC., priority 2022, published 2025).

Tested on: mutant Huntington (HTT) protein
Experiment: HTT Mutant HTRF iPSC assay (mHTT protein lowering)
Assay type: cell-based
Details: human iPSC derived from a HTT patient with a poly-Q49 mutation

SMILES	IC50 [nM]
Cc1cn2cc(-c3cc(F)c4nc(C5CCNCC5)oc4c3)cc(F)c2n1 [Compound 156, 4-fluoro-6-(8-fluoro-2-methylimidazo[1,2-a]pyridin-6-yl)-2-(piperidin-4-yl)benzo[d]oxazole]	1000 to 9000
Cc1cn2nc(-c3cc(F)c4nc(C5CCN(CC6CC6)CC5)nn4c3)cc(C)c2n1 [Compound 438, 2-(1-(cyclopropylmethyl)piperidin-4-yl)-6-(2,8-dimethylimidazo[1,2-b]pyridazin-6-yl)-8-fluoro-[1,2,4]triazolo[1,5-a]pyridine]	100 to 1000
Cc1cn2nc(-c3cc(F)c4nc(N5CCC6(CCN(C)CC6)C5)oc4c3)cc2c(C)n1 [Compound 499, 6-(4,6-dimethylpyrazolo[1,5-a]pyrazin-2-yl)-4-fluoro-2-(8-methyl-2,8-diazaspiro[4.5]decan-2-yl)benzo[d]oxazole]	100 to 1000
Cc1cn2nc(-c3cc(F)c4nn(C5CCNCC5)nc4c3)cc(C(F)F)c2n1 [Compound 374, 6-[8-(difluoromethyl)-2-methyl-imidazo[1,2-b]pyridazin-6-yl]-4-fluoro-2-(4-piperidyl)benzotriazole]	< 100
Cc1cn2nc(-c3cc(F)c4nc(NC(=O)CN5CCCCC5)cn4c3)cc(C)c2n1 [Compound 275, N-(6-(2,8-dimethylimidazo[1,2-b]pyridazin-6-yl)-8-fluoroimidazo[1,2-a]pyridin-2-yl)-2-(piperidin-1-yl)acetamide]	< 100
CCN1CCC(c2cn3cc(-c4cc(F)c5nn(C)cc5c4)cc(F)c3n2)CC1 [Compound 5, 5-(2-(1-ethylpiperidin-4-yl)-8-fluoroimidazo[1,2-a]pyridin-6-yl)-7-fluoro-2-methyl-2H-indazole]	100 to 1000
Cc1cn2nc(-c3cc(F)c4nc(C5CCN(C6COC6C)CC5)cn4c3)cc(C)c2n1 (stereo not drawn) [Compound 213, 6-(8-fluoro-2-(1-(2-methyloxetan-3-yl)piperidin-4-yl)imidazo[1,2-a]pyridin-6-yl)-2,8-dimethylimidazo[1,2-b]pyridazine]	100 to 1000
Cc1nc2ccc(-c3cc(F)c4nc(C5CCNCC5)cn4c3)nn2n1 [Compound 577, 6-(8-fluoro-2-(piperidin-4-yl)imidazo[1,2-a]pyridin-6-yl)-2-methyl-[1,2,4]triazolo[1,5-b]pyridazine]	< 100
Cc1cc(-c2cc(F)c3nn(C4CCNCC4)cc3c2)cc2cn(C)nc12 [Compound 351, 7-fluoro-2′,7′-dimethyl-2-(piperidin-4-yl)-2H,2′H-5,5′-biindazole]	100 to 1000
Cc1cn2nc(-c3cc(F)c4nc([C@@]56CC[C@H](C5)NC6)cn4c3)cc(C)c2n1 (single isomer, unassigned) [Compound 116]	1000 to 9000
Cc1cn2nc(-c3cc(F)c4nc(C56CC(N(C)C)(C5)C6)cn4c3)cc(C)c2n1 [Compound 109, 3-(6-(2,8-dimethylimidazo[1,2-b]pyridazin-6-yl)-8-fluoroimidazo[1,2-a]pyridin-2-yl)-N,N-dimethylbicyclo[1.1.1] pentan-1-amine]	< 100
Cc1cn2nc(-c3cc(F)c4nc(NC(=O)C5CN(CC(F)F)C5)cn4c3)cc(C)c2n1 [Compound 267, 1-(2,2-difluoroethyl)-N-(6-(2,8-dimethylimidazo[1,2-b]pyridazin-6-yl)-8-fluoroimidazo[1,2-a]pyridin-2-yl)azetidine-3-carboxamide]	100 to 1000
Cc1cn2nc(-c3cc(F)c4nc(NC(=O)[C@H]5C[C@@H](N(C)C)C5)cn4c3)cc(C)c2n1 [Compound 289, (1s,3s)-3-(dimethylamino)-N-(6-(2,8-dimethylimidazo[1,2-b]pyridazin-6-yl)-8-fluoroimidazo[1,2-a]pyridin-2-yl)cyclobutane-1-carboxamide]	< 100
Cc1n[nH]c2ccc(-c3cc(F)c4nc(C5CCNCC5)cn4c3)cc12 [Compound 53, 5-(8-fluoro-2-(piperidin-4-yl)imidazo[1,2-a]pyridin-6-yl)-3-methyl-1H-indazole]	1000 to 9000
CNC1CC(C(=O)Nc2cn3cc(-c4cc(C)c5nc(C)cn5n4)cc(F)c3n2)C1 (stereo not drawn) [Compound 249, N-(6-(2,8-dimethylimidazo[1,2-b]pyridazin-6-yl)-8-fluoroimidazo[1,2-a]pyridin-2-yl)-3-(methylamino)cyclobutane-1-carboxamide]	< 100
Cc1cn2nc(-c3cc(F)c4nn(C5CCN(C)CC5)cc4c3)cc(C)c2n1 [Compound 362, 6-(7-fluoro-2-(1-methylpiperidin-4-yl)-2H-indazol-5-yl)-2,8-dimethylimidazo[1,2-b]pyridazine]	< 100
Cc1nc2c(C)cc(-c3cc(F)c4nc([C@H]5[C@@H]6CN(C)C[C@@H]65)cn4c3)nn2n1 [Compound 227, 6-(8-fluoro-2-((1R,5S,6r)-3-methyl-3-azabicyclo[3.1.0]hexan-6-yl)imidazo[1,2-a]pyridin-6-yl)-2,8-dimethyl-[1,2,4]triazolo[1,5-b]pyridazine]	< 100
Cn1cc2cc(-c3cc(F)c4nc(C5CCNCC5)cn4c3)cc(C(F)F)c2n1 [Compound 84, 7-(difluoromethyl)-5-(8-fluoro-2-(piperidin-4-yl)imidazo[1,2-a]pyridin-6-yl)-2-methyl-2H-indazole]	< 100

SMILES	IC50 [nM]
Cc1cn2nc(-c3cc(F)c4nc(C5CCN(C)CC5)cn4c3)ccc2n1 [Compound 4, 6-[8-fluoro-2-(1-methyl-4-piperidyl)imidazo[1,2-a]pyridin-6-yl]-2-methyl-imidazo[1,2-b]pyridazine]	100 to 1000
Cc1cn2nc(-c3cc(F)c4nc([C@H]5[C@@H]6CNC[C@@H]65)nn4c3)cc(C)c2n1 [Compound 443, 2-[(1R,5S)-3-azabicyclo[3.1.0]hexan-6-yl]-6-(2,8-dimethylimidazo[1,2-b]pyridazin-6-yl)-8-fluoro-[1,2,4]triazolo[1,5-a]pyridine]	< 100
CCN1CCC(N(C)c2nc3cc(-c4cc(C)c5nc(C)cn5n4)cc(F)c3o2)CC1C [Compound 533, rel-5-(2,8-dimethylimidazo[1,2-b]pyridazin-6-yl)-N-((2S,4S)-1-ethyl-2-methylpiperidin-4-yl)-7-fluoro-N-methylbenzo[d]oxazol-2-amine]	1000 to 9000
Cc1cn2nc(-c3cc(F)c4nn([C@H]5[C@@H]6CN(CC7CC7)C[C@@H]65)cc4c3)cc(C)c2n1 [Compound 367, 6-[2-[(1R,5S)-3-(cyclopropylmethyl)-3-azabicyclo[3.1.0]hexan-6-yl]-7-fluoro-indazol-5-yl]-2,8-dimethyl-imidazo[1,2-b]pyridazine]	100 to 1000
Cc1cn2nc(-c3cc(F)c4nc(N5CCC(N6CCCC6)C5)oc4c3)cc(C)c2n1 (stereo not drawn) [Compound 476, 2-([1,3′-bipyrrolidin]-1′-yl)-6-(2,8-dimethylimidazo[1,2-b]pyridazin-6-yl)-4-fluorobenzo[d]oxazole]	100 to 1000
Cc1cn2nc(-c3cc(F)c4nc(NC5CC(C)NC(C)C5)oc4c3)cc(C)c2n1 (stereo not drawn) [Compound 484, 6-(2,8-dimethylimidazo[1,2-b]pyridazin-6-yl)-N-(2,6-dimethylpiperidin-4-yl)-4-fluorobenzo[d]oxazol-2-amine]	< 100
CCc1nc(C)cn2cc(-c3cc(F)c4nn(C5CCNCC5)nc4c3)cc12 [Compound 379, 6-(1-ethyl-3-methylpyrrolo[1,2-a]pyrazin-7-yl)-4-fluoro-2-(piperidin-4-yl)-2H-benzo[d][1,2,3]triazole]	100 to 1000
CCN1CC[C@@H](N(C)c2nc3c(F)cc(-c4cc(C)c5nc(C)cn5n4)cc3o2)C[C@@H]1C (relative stereo) [Compound 488, rel-6-(2,8-dimethylimidazo[1,2-b]pyridazin-6-yl)-N-((2R,4S)-1-ethyl-2-methylpiperidin-4-yl)-4-fluoro-N-methylbenzo[d]oxazol-2-amine]	100 to 1000
Cc1cn2nc(-c3cc(F)c4nc([C@H]5CCCNC5)cn4c3)cc(C)c2n1 (single isomer, unassigned) [Compound 117]	100 to 1000
Cc1cn2nc(-c3cc(F)c4nn(C5CCNCC5)nc4c3)cc(C)c2n1 [Compound 139, 6-(2,8-dimethylimidazo[1,2-b]pyridazin-6-yl)-4-fluoro-2-(piperidin-4-yl)-2H-benzo[d][1,2,3]triazole]	< 100
Cc1cn2nc(-c3cc(F)c4nc(NC(=O)C56CNC(C5)C6)nn4c3)cc(C)c2n1 [Compound 320, N-(6-(2,8-dimethylimidazo[1,2-b]pyridazin-6-yl)-8-fluoro-[1,2,4]triazolo[1,5-a]pyridin-2-yl)-2-azabicyclo[2.1.1]hexane-4-carboxamide]	1000 to 9000
CNC12COC(c3cn4cc(-c5cc(F)c6nn(C)cc6c5)cc(F)c4n3)(C1)C2 [Compound 79, 1-[8-fluoro-6-(7-fluoro-2-methyl-indazol-5-yl)imidazo[1,2-a]pyridin-2-yl]-N-methyl-2-oxabicyclo[2.1.1]hexan-4-amine]	100 to 1000
Cc1cn2nc(-c3cc(F)c4nc(C5CCNCC5)cn4c3)ccc2n1 [Compound 2, 6-(8-fluoro-2-(piperidin-4-yl)imidazo[1,2-a]pyridin-6-yl)-2-methylimidazo[1,2-b]pyridazine]	< 100
Cc1cn2nc(-c3cc(F)c4nc(C5CCN(C)CC5)cn4c3)cc(C(F)F)c2n1 [Compound 166, 8-(difluoromethyl)-6-(8-fluoro-2-(1-methylpiperidin-4-yl)imidazo[1,2-a]pyridin-6-yl)-2-methylimidazo[1,2-b]pyridazine]	< 100
Cc1cn2nc(-c3cc(F)c4nc(C5CCNCC5)c(Cl)n4c3)ccc2n1 [Compound 126, 6-[3-chloro-8-fluoro-2-(4-piperidyl)imidazo[1,2-a]pyridin-6-yl]-2-methyl-imidazo[1,2-b]pyridazine]	< 100
Cc1cn2nc(-c3cc(F)c4nc(NC(=O)C56CCCN(CC5)C6)cn4c3)cc(C)c2n1 (racemic) [Compound 279]	< 100
Cc1cn2nc(-c3cc(F)c4nc([C@H]5C[C@]6(CN[C@H](C)C6)C5)cn4c3)cc(C)c2n1 (single isomer, unassigned) [Compound 178, 6-(8-fluoro-2-((2R*,4r,7R*)-7-methyl-6-azaspiro[3.4]octan-2-yl)imidazo[1,2-a]pyridin-6-yl)-2,8-dimethylimidazo[1,2-b]pyridazine]	< 100
Cc1cn2cc(-c3cc(OC(F)F)c4nc(C5CCNCC5)cn4c3)cc(F)c2n1 [Compound 536, 8-(difluoromethoxy)-8′-fluoro-2′-methyl-2-(piperidin-4-yl)-6,6′-biimidazo[1,2-a]pyridine]	100 to 1000
